Key:
[1] = target: T1, AGE-BSA (Bos taurus, UniProt P02769); experiment: In-vitro AGE breaking activity by ELISA (16 weeks AGE-BSA incubated with test compound); format: biochemical, bovine; conditions: for % Breakage: 37°C, 24 hours; for AGE breaking activity compared to PTB / potency (AGE breaking activity compared to PTB): comparison in words based on Table 2
T1 construct: Bovine serum albumin (fraction V) (BSA); from tissue
Experimental: AGE breaking activity has been confirmed by the screening procedure as mentioned below: • Materials: • Bovine serum albumin (fraction V) (BSA) • Glucose, analytical grade • Phosphate buffered saline (PBS) • Equipment: • Microplate ELISA Reader - Spectramax Plus (Molecular Devices, USA) • Microplate washer, (Bio -Tec Instruments, USA) • pH meter • Methods of experiment: Elisa (Enzyme Linked Immunosorbent Assay) 160 mg/ml of protein, bovine serum albumin, BSA and 1.6M glucose sugar were dissolved in phosphate buffered saline, PBS. Sodium azide was added at 0.02% concentration as a preservative. The solution was filtered asceptically through a 0.22 µM filter and kept for aging at 37°C for 16 weeks. After 16 weeks the solution was dialyzed against PBS, aliquoted and stored at - 20°C.
To determine the AGE breaking activity, 10 µg/ml of the 16 weeks AGE-BSA was incubated with different concentrations of the test compounds at 37°C for 24 hours and AGE breaking activity of the test compounds by ELISA was determined.
Different concentrations of 16 weeks AGE-BSA were coated on a microtitre plate as standard. Each concentration is coated in triplicates. • 2. The test samples were coated on microtitre plate at a concentration of 5 ng. to 20 ng per well in triplicates. • 3. The plate was incubated at 37°C for one hour. • 4. After incubation the plate was washed with PBST (PBS with 0.05% Tween 20). • 5. Blocking with 5% skimmed milk in PBS at 37°C for one hour was done. • 6. The plate was washed with PBST. • 7. Primary antibody against AGE-BSA was added and the plate is incubated at 37°C for one hour. • 8. The plate was washed with PBST • 9. Secondary antibody anti rabbit HRPO (Horse-Radish Per Oxidase) conjugate was added and the plate is incubated at 37°C for one hour. • 10. The plate was washed with PBST. • 11. Colour development with OPD (orthophenylenediamine dihydrochloride) and hydrogen peroxide was done. • 12. OD (optical density) at (450nm reading - 620nm reading) was measured after incubation at 37°C for 15 minutes with Microplate ELISA Reader.
The breaker activity of the compounds were determined by the following formula: % Breaker activity =(OD450-620 Control - OD450-620 Test)/(OD450-620 Control)x 100 [formula] OD450-620Control= Absorbance of 20ng AGE-BSA after incubation at 37°C for 24 hours without test compound OD450-620Test= Absorbance of 20ng AGE-BSA after incubation at 37°C for 24 hours with required concentration of test compound

[2] = Free radical scavenging activity on ABTS radical cation (absorbance at 730nm); format: biochemical
Experimental: This method measures the relative ability of free radical scavenging substances to scavenge the ABTS ^.+ i.e. 2,2-Azino-bis-(3-ethyl benzo thiazoline-6-sulfonate) radical cation as compared to a standard amount of standard or free radical scavengers antioxidants. Incubation of ABTS with Peroxidase (metmyoglobin) and hydrogen peroxide results in the production of radical cation ABTS^.+ . This species is blue- green in colour and can be detected at 730nm. Antioxidants or free radical scavengers in the added sample that causes suppression of the color to a degree that is proportional to their concentration.
• A. Phosphate Citrate Buffer (pH 5.0): 48.5ml of 0.1M citric acid with sufficient 0.2M disodium hydrogen phosphate to produce 100 ml. • B. Phosphate Buffer Saline (PBS): Dissolve 40.0g of NaCl, 1.0g of KCI, 1.0g of KH2PO4 and 3.05g of Na2HPO4 in 1 litre milli-Q water. Dilute 200ml of above solution to 1 litre with milli-Q water (pH 7.4-7.6). • C. 3µM stock solution of Peroxidase was prepared in phosphate buffer saline pH 7.4(PBS). • D. 1.08 mM stock solution of Hydrogen peroxide was prepared in phosphate buffer saline pH 7.4 (PBS).
1 tablet (10mg) was dissolved in phosphate citrate buffer (pH 5.0).
5.0ml of ABTS stock solution was diluted with PBS to 20 ml.
320 µg of the enzyme was dissolved in 2.5 ml of PBS.
12µl of Hydrogen Peroxide (30%w/v) was diluted to 100ml with PBS.
0.1mM of stock solution of the drug was prepared which was serially diluted in PBS to get solutions of different concentrations.
To 18ml of ABTS stock solution, 100µl of Horseradish Peroxidase stock solution was added.
As soon as 1.5 ml of hydrogen peroxide solution was added to the above solution, blue-green colour of the ABTS radicals appeared. This solution was incubated at 30°C for 30 min.
980µl of ABTS radical stock solution was added to an eppendorf tube. To it was added 100µl of various PBS solution.
980µl of ABTS radical stock solutions were added to different eppendorf tubes. To it were added 100µl of various concentrations of drug solution.
The absorbance of control and test samples was recorded immediately at 730nm taking PBS as blank.
Calculation: The percent antioxidant activity was calculated according to the formula: % Antioxidant activity = [O.D of test sample/O.D of control*100]-100.

T1 sequence (P02769 25-607): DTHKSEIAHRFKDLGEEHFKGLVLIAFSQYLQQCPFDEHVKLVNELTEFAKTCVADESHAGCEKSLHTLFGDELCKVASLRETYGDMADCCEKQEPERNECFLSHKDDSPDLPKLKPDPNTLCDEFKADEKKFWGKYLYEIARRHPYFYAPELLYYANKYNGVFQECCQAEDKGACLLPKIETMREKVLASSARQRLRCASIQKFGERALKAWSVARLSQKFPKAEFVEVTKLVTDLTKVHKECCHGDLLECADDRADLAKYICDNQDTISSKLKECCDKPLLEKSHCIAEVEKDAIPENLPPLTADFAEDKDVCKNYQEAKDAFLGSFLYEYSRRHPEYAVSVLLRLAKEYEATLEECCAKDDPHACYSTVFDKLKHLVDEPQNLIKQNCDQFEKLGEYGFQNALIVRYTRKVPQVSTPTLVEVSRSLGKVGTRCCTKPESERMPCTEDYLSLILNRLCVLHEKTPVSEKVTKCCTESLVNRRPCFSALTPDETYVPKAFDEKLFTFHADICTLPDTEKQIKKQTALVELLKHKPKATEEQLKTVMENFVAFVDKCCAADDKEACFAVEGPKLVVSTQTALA

SMILES	% Breakage ([1]; 10 mM test compound)	AGE breaking activity compared to PTB [1]	potency (AGE breaking activity compared to PTB) [1]	Relative Free Radical Scavenging Activity(%) on ABTS ([2]; 11.5µM)	Relative Free Radical Scavenging Activity(%) on ABTS ([2]; 23.0µM)	Relative Free Radical Scavenging Activity(%) on ABTS ([2]; 46.0µM)	Relative Free Radical Scavenging Activity(%) on ABTS ([2]; 92.5µM)	% Breakage ([1]; 2.5 mM test compound)	% Breakage ([1]; 5 mM test compound)	Relative Free Radical Scavenging Activity(%) on ABTS ([2]; 925µM)	% Breakage ([1]; 1 mM test compound)	% Breakage ([1]; 25 mM test compound)
O=C(NNS(=O)(=O)C(F)(F)F)c1ccc[n+](CC(=O)c2cccs2)c1 [Compound 68, 1-(2-thien-2'-yl-2-oxoethyl)-3-(trifluoromethanesulfonyl hydrazinocarbonyl) - pyridinium bromide]	92.64%	superior	significantly much higher	38.47%	43.54%	89.32%	95.07%	–	–	–	–	–
O=C(C[n+]1cccc(C(=O)NNc2ccccc2)c1)Nc1ccccc1.[Cl-] [Compound 65, 1-(2-phenylamino-2-oxoethyl)-3-(phenyl hydrazinocarbonyl) pyridinium chloride]	–	superior	significantly much higher	27.67%	59.20%	94.14%	100.00%	68.35%	–	–	–	–
COCCNC(=O)c1ccc[n+](CC(=O)c2ccc(Cl)cc2Cl)c1.[Br-] [Compound 38, 1-(2', 4'-dichlorophenyl-2-oxoethyl)-3-(2-methoxyethylaminocarbonyl)-pyridinium bromide]	–	–	–	47.2%	54.8%	71.0%	89.5%	–	17.66%	100%	–	–
CS(=O)(=O)NNC(=O)c1ccc[n+](CC(=O)c2cccs2)c1.[Cl-] [Compound 45, 1-(2-thien-2'-yl-2-oxoethyl)-3-(methanesulfonyl hydrazinocarbonyl) pyridinium chloride]	17.53%	–	–	53.9%	56.2%	78.7%	99.8%	–	–	100%	–	–
CS(=O)(=O)NNC(=O)c1ccc[n+](CC(=O)c2ccc([N+](=O)[O-])s2)c1 [Compound 67, 1-2-(5-nitro-thien-2-yl)-2-oxoethyl)-3-(methanesulfonyl hydrazino carbonyl) pyridinium chloride]	–	superior	significantly much higher	13.11%	50.70%	97.46%	99.43%	–	–	–	42.01%	–
COCCOC(=O)c1ccc[n+](CC(=O)c2ccc(Cl)cc2Cl)c1 [Compound 22, 1-(2-(2', 4'-dichlorophenyl)-2-oxoethyl)-3-(2(methoxy)ethyloxycarbonyl) pyridinium bromide]	13%	–	–	27.9%	50.9%	69.3%	79.7%	–	–	100%	–	41%
CC(=O)OCCOC(=O)c1ccc[n+](CC(=O)c2ccccc2)c1.[Br-] [Compound 16, 1-(2-phenyl-2-oxoethyl) -3-(2-(acetoxy)ethyloxycarbonyl) pyridinium bromide]	16%	–	–	–	–	–	–	–	–	–	–	–
Cc1ccc(C(=O)C[n+]2cccc(C(=O)NNC(=O)c3ccc[n+](CC(=O)c4ccc(C)s4)c3)c2)s1 [Compound 58, N, N'-bis [3-carbonyl-1-(2-(5-methylthien-2-yl)-2-oxoethyl)pyridinium] hydrazine dichloride]	81.95%	–	–	–	–	–	–	–	–	–	–	–
CCCCNC(=O)c1ccc[n+](CC(=O)Nc2ccccc2)c1.[Cl-] [Compound 94, 1-(2-Phenylamino - 2-oxoethyl) - 3 - (n-butylaminocarbonyl) pyridinium chloride]	27%	–	–	–	–	–	–	–	–	–	–	–
